Test results from US8148070B2, “Genetic polymorphisms associated with coronary events and drug response, methods of detection and uses thereof” (Celera Corporation, priority 2007, dated 2012).

Tested on: CARE patients
Assay: CARE trial: pravastatin vs placebo, recurrent MI in subgroups defined by KIF6 (and neighbouring SNP) genotype
Type: in vivo, human
Settings: for HR, Unadjusted (recurrent MI, pravastatin vs placebo): placebo = ref; for OR for minor hom / OR for carrier (Min + Het) / OR for Het / OR for major hom: risk of recurrent MI
Source text: In order to identify genetic markers associated with CHD (particularly MI, including recurrent MI) or the effect of statin treatment on CHD, samples were genotyped in two clinical trials: the Cholesterol and Recurrent Events (CARE) study (a randomized multicentral double-blinded trial on secondary prevention of MI with pravastatin (Pravachol®); Sacks et al., Am. J. Cardiol. 68: 1436-1446 [1991]), and the West of Scotland Coronary Prevention Study (WOSCOPS) study (a randomized multicentral double-blinded trial on primary prevention of CHD with pravastatin (Pravachol®); Shepherd et al., N Eng J Med 333 (20), pp. 1301-7, Nov. 16, 1995; Packard et al., N Eng J Med 343 (16), pp. 1148-55, Oct. 19, 2000).
A well-documented MI was one of the enrollment criteria for entry into the CARE study. Patients were enrolled in the CARE trial from 80 participating study centers. […] Patients were randomized to receive either 40 mg of pravastatin once daily or a matching placebo. The primary endpoint of the trial was death from CHD or nonfatal MI and the median duration of follow-up was 5.0 years (range, 4.0 to 6.2 years). For this genetic study of CARE, a composite endpoint comprised of fatal or nonfatal recurrent MI was used.
For genotyping SNPs in CARE patient samples, DNA was extracted from blood samples using conventional DNA extraction methods such as the QIAamp kit from Qiagen. Genotypes were obtained by a method similar to that described by Iannone (M. A. Iannone et al., Cytometry 39(2):131-140 [Feb. 1, 2000]; also described in section “SNP DETECTION REAGENTS,” supra). Briefly, target DNA was amplified by multiplex PCR, the amplified product was submitted to a multiplex oligo ligation assay (OLA), the specific ligated products were hybridized to unique universal “ZIP code” oligomer sequences covalently attached to Luminex xMAP® Multi-Analyte COOH Microspheres, and these hybridization products/microspheres were detected in a rapid automated multiplex system (Luminex 100 instrument).
In analyzing the CARE patients, statistical analysis was performed with SAS version 9. Cox proportional hazard models (Wald tests) were used in CARE to assess the association of genotype with both the risk of incident MI in the placebo arm and the effect of pravastatin on MI compared to placebo in subgroups defined by genotypes. In analyzing the WOSCOPS patients, a conditional logistic regression model was used in WOSCOPS given that the controls had been previously matched to the cases. The column entitled “On-trial MI” lists the number of patients who suffered a recurrent MI during the clinical trial period.
HR stands for Hazard Ratio, which is a concept similar to Odds Ratio (OR). The HR in event-free survival analysis is the effect of an explanatory variable on the hazard or risk of an event. For examples, it describes the likelihood of developing MI based on comparison of rate of coronary events between carriers of the certain allele and noncarriers; therefore, HR=1.5 would mean that carriers of the certain allele have 50% higher risk of coronary events during the study follow up than non-carriers. HR can also describe the effect of statin therapy on coronary events based on comparison of rate of coronary events between patient treated with statin and patient treated with placebo (or other statin) in subgroups defined by SNP genotype; therefore, HR=0.5 would mean that, for example, carriers of the certain allele, had 50% reduction of coronary events by statin therapy as compared to placebo. In Table 6, p interaction values were calculated. An interaction (or effect modification) is formed when a third variable modifies the relation between an exposure and outcome. […] Genotype and drug interaction is present when the effect of statins (incidence rate of disease in statin-treated group, as compared to placebo) differs in patients with different genotypes. The hCV3054799 risk allele predicted risk of MI in CARE and was associated with odds of CHD in WOSCOPS. […]

`CC[C@H](C)C(=O)O[C@H]1C[C@H](O)C=C2C=C[C@H](C)[C@H](CC[C@@H](O)C[C@@H](O)CC(=O)O)[C@H]21` [Pravastatin, pravastatin] was tested, and the “HR, Adjusted (recurrent MI, pravastatin vs placebo)” value (AA (noncarriers), adjusted for conventional risk factors) was 0.80, the “On-trial MI” value (AA, of 554 patients in the pravastatin arm) was 39 number of patients and the “HR, Adjusted (recurrent MI, pravastatin vs placebo)” value (GG + GA (719Arg carriers), adjusted for age, smoking, hypertension, diabetes, BMI, LDL-C, HDL-C) was 0.63. For the same compound, the “On-trial MI” value (GG + GA, of 810 patients in the pravastatin arm) was 64 number of patients, the “HR, Unadjusted (recurrent MI, pravastatin vs placebo)” value (KIF6 Trp719Arg AA (noncarriers)) was 0.86 and the “HR, Unadjusted (recurrent MI, pravastatin vs placebo)” value (KIF6 Trp719Arg GG + GA (719Arg carriers), 40 mg pravastatin once daily) was 0.63. The “reduction of relative risk of recurrent MI” value (carriers of the 719Arg risk allele, pravastatin vs placebo) was 37%, the “risk reduction (coronary events)” value (noncarriers, pravastatin vs placebo, insignificant) was 20% and the “OR, Effect of Pravastatin on MI and CHD” value (pravastatin vs placebo, hCV3054808 genotype AA) was 1.04. The “OR, Effect of Pravastatin on MI and CHD” value (pravastatin vs placebo, hCV3054808 genotype AC) was 0.50, the “OR, Effect of Pravastatin on MI and CHD” value (pravastatin vs placebo, hCV3054808 genotype CC) was 1.01 and the “OR, Effect of Pravastatin on MI and CHD” value (pravastatin vs placebo, hCV3054813 genotype CC) was 0.98. For the same compound, the “OR, Effect of Pravastatin on MI and CHD” value (pravastatin vs placebo, hCV3054813 genotype CT) was 0.45, the “OR, Effect of Pravastatin on MI and CHD” value (pravastatin vs placebo, hCV3054813 genotype TT) was 1.06 and the “OR, Effect of Pravastatin on MI and CHD” value (pravastatin vs placebo, hCV29992177 genotype AA) was 0.71. For the same compound, the “OR, Effect of Pravastatin on MI and CHD” value (pravastatin vs placebo, hCV29992177 genotype GA) was 0.57, the “OR, Effect of Pravastatin on MI and CHD” value (pravastatin vs placebo, hCV29992177 genotype GG) was 1.88 and the “OR, Effect of Pravastatin on MI and CHD” value (pravastatin vs placebo, hCV30225864 genotype CC) was 0.79. For the same compound, the “OR, Effect of Pravastatin on MI and CHD” value (pravastatin vs placebo, hCV30225864 genotype CT) was 0.63, the “OR, Effect of Pravastatin on MI and CHD” value (pravastatin vs placebo, hCV30225864 genotype TT) was 0.73 and the “OR for minor hom” value (pravastatin vs placebo, hCV792699 CC minor homozygotes) was 0.8127. For the same compound, the “OR for carrier (Min + Het)” value (pravastatin vs placebo, hCV792699 CC+CT carriers of minor allele) was 0.7089, the “OR for Het” value (pravastatin vs placebo, hCV792699 CT heterozygotes) was 0.6534 and the “OR for major hom” value (pravastatin vs placebo, hCV792699 TT major homozygotes) was 0.8085. For the same compound, the “OR for major hom” value (pravastatin vs placebo, hCV1650850 CC major homozygotes) was 0.7381, the “OR for Het” value (pravastatin vs placebo, hCV1650850 GC heterozygotes) was 1.7143 and the “OR for carrier (Min + Het)” value (pravastatin vs placebo, hCV1650850 GG+GC carriers of minor allele) was 1.7143. The “OR for minor hom” value (pravastatin vs placebo, hCV3054766 AA minor homozygotes) was 0.4856, the “OR for carrier (Min + Het)” value (pravastatin vs placebo, hCV3054766 AA+AC carriers of minor allele) was 0.6695 and the “OR for Het” value (pravastatin vs placebo, hCV3054766 AC heterozygotes) was 0.7705. The “OR for major hom” value (pravastatin vs placebo, hCV3054766 CC major homozygotes) was 0.9847, the “OR for minor hom” value (pravastatin vs placebo, hCV3054789 AA minor homozygotes) was 1.0873 and the “OR for carrier (Min + Het)” value (pravastatin vs placebo, hCV3054789 AA+AT carriers of minor allele) was 0.8227. For the same compound, the “OR for Het” value (pravastatin vs placebo, hCV3054789 AT heterozygotes) was 0.7597, the “OR for major hom” value (pravastatin vs placebo, hCV3054789 TT major homozygotes) was 0.6567 and the “OR for major hom” value (pravastatin vs placebo, hCV3054799 AA major homozygotes) was 0.8639. The “OR for Het” value (pravastatin vs placebo, hCV3054799 GA heterozygotes) was 0.5818, the “OR for minor hom” value (pravastatin vs placebo, hCV3054799 GG minor homozygotes) was 0.9215 and the “OR for carrier (Min + Het)” value (pravastatin vs placebo, hCV3054799 GG+GA carriers of minor allele) was 0.6442. The “OR for major hom” value (pravastatin vs placebo, hCV3054805 CC major homozygotes) was 0.9323, the “OR for Het” value (pravastatin vs placebo, hCV3054805 GC heterozygotes) was 0.5933 and the “OR for minor hom” value (pravastatin vs placebo, hCV3054805 GG minor homozygotes) was 0.9317. The “OR for carrier (Min + Het)” value (pravastatin vs placebo, hCV3054805 GG+GC carriers of minor allele) was 0.6653, the “OR for minor hom” value (pravastatin vs placebo, hCV3054808 AA minor homozygotes) was 1.037 and the “OR for carrier (Min + Het)” value (pravastatin vs placebo, hCV3054808 AA+AC carriers of minor allele) was 0.6257. The “OR for Het” value (pravastatin vs placebo, hCV3054808 AC heterozygotes) was 0.5292, the “OR for major hom” value (pravastatin vs placebo, hCV3054808 CC major homozygotes) was 1.0056 and the “OR for minor hom” value (pravastatin vs placebo, hCV3054822 AA minor homozygotes) was 0.852. The “OR for carrier (Min + Het)” value (pravastatin vs placebo, hCV3054822 AA+AT carriers of minor allele) was 0.5778, the “OR for Het” value (pravastatin vs placebo, hCV3054822 AT heterozygotes) was 0.5213 and the “OR for major hom” value (pravastatin vs placebo, hCV3054822 TT major homozygotes) was 0.9897. For the same compound, the “OR for minor hom” value (pravastatin vs placebo, hCV3054829 CC minor homozygotes) was 0.9021, the “OR for carrier (Min + Het)” value (pravastatin vs placebo, hCV3054829 CC+CT carriers of minor allele) was 0.8052 and the “OR for Het” value (pravastatin vs placebo, hCV3054829 CT heterozygotes) was 0.783. The “OR for major hom” value (pravastatin vs placebo, hCV3054829 TT major homozygotes) was 0.6064, the “OR for carrier (Min + Het)” value (pravastatin vs placebo, hCV15876373 CC+CT carriers of minor allele) was 0.9708 and the “OR for Het” value (pravastatin vs placebo, hCV15876373 CT heterozygotes) was 0.8241. The “OR for major hom” value (pravastatin vs placebo, hCV15876373 TT major homozygotes) was 0.6881, the “OR for major hom” value (pravastatin vs placebo, hCV29649182 CC major homozygotes) was 0.7223 and the “OR for Het” value (pravastatin vs placebo, hCV29649182 TC heterozygotes) was 0.7631. For the same compound, the “OR for minor hom” value (pravastatin vs placebo, hCV29649182 TT minor homozygotes) was 1.7333, the “OR for carrier (Min + Het)” value (pravastatin vs placebo, hCV29649182 TT+TC carriers of minor allele) was 0.7818 and the “OR for minor hom” value (pravastatin vs placebo, hCV30388472 CC minor homozygotes) was 0.5175. For the same compound, the “OR for carrier (Min + Het)” value (pravastatin vs placebo, hCV30388472 CC+CT carriers of minor allele) was 0.6291, the “OR for Het” value (pravastatin vs placebo, hCV30388472 CT heterozygotes) was 0.6798 and the “OR for major hom” value (pravastatin vs placebo, hCV30388472 TT major homozygotes) was 1.0182. For the same compound, the “OR for carrier (Min + Het)” value (pravastatin vs placebo, hCV30478067 AA+AG carriers of minor allele) was 0.6875, the “OR for Het” value (pravastatin vs placebo, hCV30478067 AG heterozygotes) was 0.5153 and the “OR for major hom” value (pravastatin vs placebo, hCV30478067 GG major homozygotes) was 0.7461. For the same compound, the “OR for carrier (Min + Het)” value (pravastatin vs placebo, hCV31340487 CC+CT carriers of minor allele) was 1.1573, the “OR for Het” value (pravastatin vs placebo, hCV31340487 CT heterozygotes) was 1.0761 and the “OR for major hom” value (pravastatin vs placebo, hCV31340487 TT major homozygotes) was 0.697. For the same compound, the “OR for carrier (Min + Het)” value (pravastatin vs placebo, hCV32202303 CC+CG carriers of minor allele) was 0.5857, the “OR for Het” value (pravastatin vs placebo, hCV32202303 CG heterozygotes) was 0.6208 and the “OR for major hom” value (pravastatin vs placebo, hCV32202303 GG major homozygotes) was 0.7655. The “patients who had experienced another MI” value (whole pravastatin-treated group, 5 years of follow-up) was 114 patients.
